# According to patent publication US9834542B2, “LXR modulators” (BRISTOL-MYERS SQUIBB COMPANY, priority 2013, dated 2017):
# Target: T1, LXRβ (Homo sapiens, UniProt P55055)
# T1 construct: Co-transfection expression plasmids, comprising full-length LXRα (pCMX-h LXRα[…] or LXRβ (pCMX-hLXRβ)); expressed in transfected cells; host or cells: CV-1 African Green Monkey Kidney Cells
# T1 sequence (P55055 1-460): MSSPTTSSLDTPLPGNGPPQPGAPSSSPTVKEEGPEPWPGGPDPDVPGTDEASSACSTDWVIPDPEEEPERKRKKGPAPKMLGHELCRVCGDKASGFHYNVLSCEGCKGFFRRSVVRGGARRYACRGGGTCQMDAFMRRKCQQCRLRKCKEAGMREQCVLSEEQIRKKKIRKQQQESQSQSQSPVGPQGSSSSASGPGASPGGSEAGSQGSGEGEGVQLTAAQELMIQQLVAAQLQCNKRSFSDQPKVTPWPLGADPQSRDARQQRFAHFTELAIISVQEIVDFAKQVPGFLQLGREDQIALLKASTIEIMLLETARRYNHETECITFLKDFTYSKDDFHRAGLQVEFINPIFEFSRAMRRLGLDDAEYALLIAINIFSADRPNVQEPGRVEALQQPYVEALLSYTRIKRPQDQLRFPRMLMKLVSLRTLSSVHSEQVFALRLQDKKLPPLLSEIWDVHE
# T1 sequence (P19793 1-462 partner): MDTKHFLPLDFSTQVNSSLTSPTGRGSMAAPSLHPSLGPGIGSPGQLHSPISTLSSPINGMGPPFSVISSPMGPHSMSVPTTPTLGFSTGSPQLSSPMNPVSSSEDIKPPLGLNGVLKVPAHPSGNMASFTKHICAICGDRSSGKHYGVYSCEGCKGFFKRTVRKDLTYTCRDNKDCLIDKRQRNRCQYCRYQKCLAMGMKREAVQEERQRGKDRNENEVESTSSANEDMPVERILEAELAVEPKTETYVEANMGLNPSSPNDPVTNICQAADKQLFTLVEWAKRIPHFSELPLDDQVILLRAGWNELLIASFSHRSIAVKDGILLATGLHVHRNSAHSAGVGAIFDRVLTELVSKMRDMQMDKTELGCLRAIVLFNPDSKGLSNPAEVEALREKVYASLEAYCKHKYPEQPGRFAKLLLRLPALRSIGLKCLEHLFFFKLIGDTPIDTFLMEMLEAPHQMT
# Test: Co-transfection assay (LXRE luciferase reporter), LXRβ
# Assay type: cell-based
# Conditions: for EC50: CV-1 cells transfected with pCMX-hLXRβ and LXREx1-Tk-Luciferase, 20 hours incubation; for Emax: LXRβ co-transfection, relative to high control 1-(2,4-difluorobenzyl)-2-oxo-6-(4-phenoxyphenyl)-4-(trifluoromethyl)-1,2-dihydropyridine-3-carbonitrile, read-out: % Efficacy
# In short: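 Luciferase signal from an LXREx1-Tk reporter was measured after transfected CV-1 cells (full-length hLXRβ, endogenous RXR) were treated with compounds for 20 h at 37 °C, ≤0.5% DMSO. EC50 came from four-parameter fits of 11-point ½-log curves; % efficacy versus a reference agonist maximum.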
SMILES,EC50,Emax
"Cc1nc(-c2cc(-c3cc(F)c(CO)c(S(C)(=O)=O)c3)ccc2-n2cc(C(F)(F)F)nc2C)c(-c2ccc(Cl)cc2)o1 [Example 374, {3′-[5-(4-chlorophenyl)-2-methyl-1,3-oxazol-4-yl]-3-fluoro-5-(methylsulfonyl)-4′-[2-methyl-4-(trifluoromethyl)-1H-imidazol-1-yl]biphenyl-4-yl}methanol]",50 nM,72%
"Cc1nc(C(F)(F)F)c(Cl)n1-c1ccc(-c2cccc(S(C)(=O)=O)c2)cc1-c1cnnn1-c1ccc(Cl)cc1 [Example 243, 5-{4-[5-chloro-2-methyl-4-(trifluoromethyl)-1H-imidazol-1-yl]-3′-(methylsulfonyl)biphenyl-3-yl}-1-(4-chlorophenyl)-1H-1,2,3-triazole]",238 nM,107%
"CCCc1nc(-c2cc(-c3ccc(CO)c(S(C)(=O)=O)c3)ccc2-n2cc(C(F)(F)F)nc2C)c(-c2ccc(OC(F)(F)F)cc2)o1 [Example 558, (4′-(2-methyl-4-(trifluoromethyl)-1H-imidazol-1-yl)-3-(methylsulfonyl)-3′-(2-propyl-5-(4-(trifluoromethoxy)phenyl)oxazol-4-yl)-[1,1′-biphenyl]-4-yl)methanol]",10 nM,82%
"Cc1nc(-c2ccccc2C(F)(F)F)c(-c2cc(-c3cccc(S(C)(=O)=O)c3)ccc2-n2cc(C(F)(F)F)nc2C)o1 [Example 629, 2-methyl-5-(4-(2-methyl-4-(trifluoromethyl)-1H-imidazol-1-yl)-3′-(methylsulfonyl)-[1,1′-biphenyl]-3-yl)-4-(2-(trifluoromethyl)phenyl)oxazole]",303 nM,31%
"Cc1nc(C(F)(F)F)cn1-c1ccc(-c2cc(F)c(CO)c(S(C)(=O)=O)c2)cc1-n1nncc1-c1ccc2occc2c1 [Example 216, (3′-(5-(benzofuran-5-yl)-1H-1,2,3-triazol-1-yl)-3-fluoro-4′-(2-methyl-4-(trifluoromethyl)-1H-imidazol-1-yl)-5-(methylsulfonyl)-[1,1′-biphenyl]-4-yl)methanol]",286 nM,91%
"Cc1nc(-c2cc(-c3cc(F)c(CO)c(S(C)(=O)=O)c3)ccc2-n2cc(C(F)(F)F)nc2C)c(-c2ccc(OC(F)(F)C(F)F)cc2)o1 [Example 544, (3-fluoro-4′-(2-methyl-4-(trifluoromethyl)-1H-imidazol-1-yl)-3′-(2-methyl-5-(4-(1,1,2,2-tetrafluoroethoxy)phenyl)oxazol-4-yl)-5-(methylsulfonyl)-[1,1′-biphenyl]-4-yl)methanol]",35 nM,41%
"COc1ncc(-c2oc(C)nc2-c2cc(-c3cc(F)c(CO)c(S(C)(=O)=O)c3)ccc2-n2cc(C(F)(F)F)nc2C)cn1 [Example 415, (3-fluoro-3′-(5-(2-methoxypyrimidin-5-yl)-2-methyloxazol-4-yl)-4′-(2-methyl-4-(trifluoromethyl)-1H-imidazol-1-yl)-5-(methylsulfonyl)biphenyl-4-yl)methanol]",1500 nM,86%
"Cc1nc(-c2cc(-c3cccc(S(C)(=O)=O)c3)ccc2-n2cc(C(F)(F)F)nc2C)c(-c2ccc(C(F)(F)F)cc2)o1 [Example 513, 2-methyl-4-(4-(2-methyl-4-(trifluoromethyl)-1H-imidazol-1-yl)-3′-(methylsulfonyl)biphenyl-3-yl)-5-(4-(trifluoromethyl)phenyl)oxazole]",137 nM,64%
Cc1nc(C(F)(F)F)cn1-c1ccc(-c2cc(F)c(CO)c(S(C)(=O)=O)c2)cc1-c1nc(C2CC2)oc1-c1ccc2c(c1)OC(F)(F)O2 [Example 483],40 nM,66%
"Cc1nc(C(F)(F)F)cn1-c1c(F)cc(-c2cccc(S(C)(=O)=O)c2)cc1-n1nncc1-c1ccc(Cl)cc1 [Example 204, 5-(4-chlorophenyl)-1-{5-fluoro-3′-(methylsulfonyl)-4-[2-methyl-4-(trifluoromethyl)-1H-imidazol-1-yl]biphenyl-3-yl}-1H-1,2,3-triazole]",110 nM,97%
"Cc1nc(C(F)(F)F)cn1-c1ccc(-c2cc(F)c(CO)c(S(C)(=O)=O)c2)cc1-n1nncc1C(=O)c1ccc(C(F)(F)F)cc1 [Example 141, (1-{3′-fluoro-4′-(hydroxymethyl)-5′-(methylsulfonyl)-4-[2-methyl-4-(trifluoromethyl)-1H-imidazol-1-yl]biphenyl-3-yl}-1H-1,2,3-triazol-5-yl)[4-(trifluoromethyl)phenyl]meth-anone]",619 nM,106%
"Cc1nc(C(F)F)c(Cl)n1-c1ccc(-c2cc(F)c(CO)c(S(C)(=O)=O)c2)cc1-n1nncc1-c1ccc(OC(F)(F)F)cc1 [Example 173, {4′-[5-chloro-4-(difluoromethyl)-2-methyl-1H-imidazol-1-yl]-3-fluoro-5-(methylsulfonyl)-3′-(5-{4-[(trifluoromethyl)oxy]phenyl}-1H-1,2,3-triazol-1-yl)biphenyl-4-yl}methanol]",264 nM,148%
"Cc1nc(-c2ccc(Cl)cc2)c(-c2cc(-c3cccc(S(C)(=O)=O)c3)ccc2-n2cc(C(F)(F)F)nc2C)o1 [Example 605, 4-(4-chlorophenyl)-2-methyl-5-(4-(2-methyl-4-(trifluoromethyl)-1H-imidazol-1-yl)-3′-(methylsulfonyl)-[1,1′-biphenyl]-3-yl)oxazole]",91 nM,89%

# The next lines start with the values.
EC50,Emax,SMILES
164 nM,105%,"Cc1nc(C(F)(F)F)cn1-c1ccc(-c2cccc(S(C)(=O)=O)c2)cc1-n1nncc1-c1ccc(OC(F)(F)F)cc1 [Example 49, 1-{3′-(methylsulfonyl)-4-[2-methyl-4-(trifluoromethyl)-1H-imidazol-1-yl]biphenyl-3-yl}-5-{4-[(trifluoromethyl)oxy]phenyl}-1H-1,2,3-triazole]"
21 nM,71%,"Cc1nc(C(F)(F)F)cn1-c1ccc(-c2ccc(CO)c(S(C)(=O)=O)c2)cc1-c1nc(C(C)C)oc1-c1ccc(OC(F)(F)F)cc1 [Example 521, (3′-(2-isopropyl-5-(4-(trifluoromethoxy)phenyl)oxazol-4-yl)-4′-(2-methyl-4-(trifluoromethyl)-1H-imidazol-1-yl)-3-(methylsulfonyl)-[1,1′-biphenyl]-4-yl)methanol]"
541 nM,93%,"COc1ccc(-c2cnnn2-c2cc(-c3cccc(S(C)(=O)=O)c3)ccc2-n2cc(C(F)(F)F)nc2C)cc1 [Example 26, 5-[4-(methyloxy)phenyl]-1-{3′-(methylsulfonyl)-4-[2-methyl-4-(trifluoromethyl)-1H-imidazol-1-yl]biphenyl-3-yl}-1H-1,2,3-triazole]"
724 nM,60%,"CC(=O)c1ccc(-c2cnnn2-c2cc(-c3cccc(S(C)(=O)=O)c3)ccc2-n2cc(C(F)(F)F)nc2C)cc1 [Example 36, 1-[4-(1-{3′-(methylsulfonyl)-4-[2-methyl-4-(trifluoromethyl)-1H-imidazol-1-yl]biphenyl-3-yl}-1H-1,2,3-triazol-5-yl)phenyl]ethanone]"
852 nM,96%,"Cc1cn(-c2ccc(-c3cc(F)c(CO)c(S(C)(=O)=O)c3)cc2-n2nncc2-c2ccc(OC(F)(F)F)cc2)c(C)n1 [Example 84, [4′-(2,4-dimethyl-1H-imidazol-1-yl)-3-fluoro-5-(methylsulfonyl)-3′-(5-{4-[(trifluoromethyl)oxy]phenyl)-1H-1,2,3-triazol-1-yl)biphenyl-4-yl]methanol]"
561 nM,83%,"Cc1nc(C(F)(F)F)cn1-c1ccc(-c2cccc(C(C)(C)C(N)=O)c2)cc1-n1nncc1-c1ccc(OC(F)(F)F)cc1 [Example 27, 2-methyl-2-{4′-[2-methyl-4-(trifluoromethyl)-1H-imidazol-1-yl]-3′-(5-{4-[(trifluoromethyl)oxy]phenyl}-1H-1,2,3-triazol-1-yl)biphenyl-3-yl}propanamide]"
316 nM,83%,"COCc1ccc(-c2ccc(-n3cc(C(F)(F)F)nc3C)c(-n3nncc3-c3ccc(OC(F)(F)F)cc3)c2)cc1S(C)(=O)=O [Example 89, 1-{4′-[(methyloxy)methyl]-3′-(methylsulfonyl)-4-[2-methyl-4-(trifluoromethyl)-1H-imidazol-1-yl]biphenyl-3-yl}-5-{4-[(trifluoromethyl)oxy]phenyl}-1H-1,2,3-triazole]"
